# Reference: US4782074A (priority 1987, dated 1988)
# Assays:
# Assay type in all cases: in vivo
# Plasmopara viticola = test: Grape Downy Mildew control (Example E); conditions: detached grape leaves, cultivar Emperor, relative to untreated check plants, read-out: % Control GDM
# Experimental: The compounds of the invention were tested for the control of the Grape Downy Mildew organism Plasmopara viticola. Detached leaves, between 70 mm and 85 mm in diameter, 7-week-old Vitis vinifera cultivar Emperor grape seedlings were used as hosts. The leaves were sprayed with a 250-ppm solution of the test compound in acetone. The sprayed leaves were dried, inoculated with a spore suspension of the organism, placed in a humid environmental chamber and incubated at 66° F. to 68° F. and about 100% relative humidity. After incubation for 2 days, the plants were then held in a greenhouse 7 to 9 days; then the amount of disease control was determined. The percent disease control provided by a given test compound was based on the percent disease reduction relative to untreated check plants.
# Phytophthora infestans = test: whole plant or invertebrate; conditions: in Solanum lycopersicum, 168 h, read-out: % Control TLB
# Septoria apii = test: whole plant or invertebrate; conditions: 336 h, read-out: % Control CLB
# [1] = tested on: Alternaria solani conidia; test: Tomato Early Blight control (Example D); conditions: 288 h, tomato seedlings, Bonny Best, inoculated 1 day after spray, relative to untreated check plants, read-out: % Control TEB
# Experimental: Compounds of the invention were tested for the control of the Tomato Early Blight organism Alternaria solani conidia. Tomato (variety Bonny Best) seedlings of 6- to 7-weeks old were used. The tomato plants were sprayed with a 250-ppm solution of the test compound in an acetone-and-water solution containing a small amount of a nonionic emulsifier. The sprayed plants were inoculated 1 day later with the organism, placed in the environmental chamber and incubated at 66° F. to 68° F. and 100% relative humidity for 24 hours. Following the incubation, the plants were maintained in a greenhouse for about 12 days. Percent disease control was based on the percent disease development on untreated check plants.
# Uromyces phaseoli tipica = test: Leaf Rust / Bean Rust control (Example F); conditions: 336 h, pinto bean plants, rated after about 14 days, relative to untreated check plants, read-out: % Control BR
# Experimental: The Leaf Rust test was made using pinto beans. The pathogen was Uromyces phaseoli tipica. The pinto bean plants were sprayed with a 250-ppm solution of the test compound in an acetone-water mixture containing a nonionic emulsifier. The treated plants were inoculated thereafter with the pathogen and then incubated in an environmental chamber for approximately 20 hours at 100% relative humidity and a temperature of 68° F. to 70° F. The plants were then removed from the chamber, allowed to dry, and then maintained in a greenhouse at a 60% to 80% relative humidity. The rate of infection on the leaves was made after about 14 days. The percent disease control provided by a given test compound was based on the percent disease reduction relative to untreated check plants.
# Erysiphe polygoni = test: Bean Powdery Mildew control (Example A); conditions: 240 h, seedling bean plants, inoculated 1 day after spray, 10 days, relative to untreated check plants, read-out: % Control BPM
# Experimental: The compounds of the invention were tested for the control of the Bean Powdery Mildew organism Erysiphe polygoni. Seedling bean plants were sprayed with a 250-ppm solution of the test compound in acetone, water and a nonionic emusifier. The sprayed plants were then inoculated 1 day later with the organism. The plants were maintained for 10 days at temperatures of 68° F. at night with daytime temperatures of 72° F. to 80° F.; relative humidity was maintained at 40% to 60%. The percent disease control provided by a given test compound was based on the percent disease reduction relative to the untreated check plants.
# Piricularia oryzae = test: whole plant or invertebrate; conditions: Pyricularia oryzae, read-out: % Control RB
Compound,pest or weed control at 250 ppm (Plasmopara viticola) [%],pest or weed control at 250 ppm (Phytophthora infestans) [%],pest or weed control at 250 ppm (Septoria apii) [%],pest or weed control at 250 ppm [1] [%],pest or weed control at 250 ppm (Uromyces phaseoli tipica) [%],pest or weed control at 250 ppm (Erysiphe polygoni) [%],pest or weed control at 625 ppm (Piricularia oryzae) [%]
CCCN(CCOc1c(C)cc(C)cc1C)C(=O)c1cccnc1 [Compound 14],0,0,85,67,0,100,64
CCCN(Cc1c(Cl)cccc1Cl)C(=O)c1cnccn1 [Compound 28],3,4,30,27,7,92,0
CCCN(CCOc1c(Cl)cc(Cl)cc1Cl)C(=O)c1ccccn1 [Compound 9],19,0,9,0,50,0,10
"CCCN(CCSc1c(Cl)cccc1Cl)C(=O)c1cccnc1 [Compound 11, N-(n-propyl), N-(3-pyridylcarbonyl) 2-aminoethanethiol 2,6-dichlorophenylthioether]",13,0,0,60,0,58,29
CCCN(CCOc1c(C)cc(C)cc1C)C(=O)c1cnccn1 [Compound 15],0,0,15,67,0,44,29
"CCCN(CCCc1c(Cl)cccc1Cl)C(=O)c1cccnc1 [Compound 22, N-[3-(2,6-dichlorophenyl)propyl], N-(n-propyl)nicotine amide]",7,0,38,88,0,44,0
CCCN(CCCc1ccc(Cl)cc1Cl)C(=O)c1cnccn1 [Compound 26],13,4,10,0,3,11,21
"C=CCN(CCOc1c(Cl)cc(Cl)cc1Cl)C(=O)c1cccnc1 [Compound 32, N-allyl, N-(3-pyridylcarbonyl)ethanolamine 2,4,6-trichlorophenylether]",41,0,0,0,0,4,0
CCN(CCOc1c(Cl)cc(Cl)cc1Cl)C(=O)c1cccnc1 [Compound 35],41,0,98,30,0,100,96
"CCCN(CCOc1c(Cl)cc(Cl)cc1Cl)C(=O)c1cncn1C [Compound 12, N-(n-propyl), N-(1-methyl-5-imidazolylcarbonyl)ethanolamine 2,4,6-trichlorophenylether]",19,18,45,36,29,100,0
CCCN(CCOc1ccc(Cl)cc1Cl)C(=O)c1cnccn1 [Compound 7],13,0,15,0,3,21,0
CCCN(CC(C)Cc1ccc(C(C)(C)C)cc1)C(=O)c1cccnc1 (stereo not drawn) [Compound 23],0,7,29,33,0,100,0
